Earlier results as cited in patent EP0306335A1, “Analysis of ions present at low concentrations in solutions containing other ions” (Bradshaw, Jerald S., priority 1987, dated 1989).

Conditions: ligand as solute in solution

log of the equilibrium constant (log K) for interaction with Sr²⁺: 8.73
SMILES: O=C(O)CN(CCN(CC(=O)O)CC(=O)O)CC(=O)O [EDTA, ethylenediaminetetraacetic acid]
